# US10266489B2, “Pyrrolic amide compound and preparation method and application thereof” (HitGen LTD, priority 2014, dated 2019)
# How the values were obtained:
# Huh7 cells = experiment: Determination of cell growth inhibition, CCK-8, Huh-7; assay type: cell-based; conditions: Homo sapiens, Huh-7 hepatoma cells, 72 hours, highest measured IC50 of single or multiple operations
# From the text: (§1) Test example 2 Cell determination-determination of cell growth inhibition Materials and reagents HepG2 cell strains, Hep3B cell strains, Huh7 cell strains and Li7 cell strains are purchased from Shanghai Institutes for Biological Sciences of Chinese Academy of Sciences; DMEM high glucose media and MEM media are purchased from Hyclone; fetal calf serum is purchased from Gibco Company; trypsin is purchased from Invitrogen Shanghai; CCK-8 kits are purchased from Beyotime Institute of Biotechnology; and other consumables such as cell-culture dishes and the like are purchased from Corning China. […]
# (§2) comprising the steps: digesting HepG2 cells, Hep3B Huh7 cells and Li7 cells in logarithmic phases by using the trypsin; after counting the cells by taking uniform cell suspension, adjusting cell density to 1500 cells/pore by using a culture medium containing 10% of serum, and re-inoculating into a 96-pore cell culture plate, wherein the culture volume is 200 μL; incubating in a 5% CO2 incubator at a temperature of 37° C.; and culturing for 24 hours for experiments. […]
# (§3) comprising the steps: taking the cells cultured for 24 hours from the incubator, sucking culture solution in the pore plate, adding 200 μL of compound solution prepared by using a culture medium containing 10% of the fetal calf serum into each pore, enabling five pores of each concentration to be parallel, setting DMSO at negative control, and incubating in the 5% CO2 incubator at a temperature of 37° C. for 72 hours for performing CCK-8 detection. […]
# (§4) comprising the steps: taking a serum-free medium and a CCK-8 solution, and preparing a CCK-8 working solution according to a ratio of 10:1 (the process needs to be protected from light); taking the cells cultured for 72 hours from the incubator, sucking culture solution in the pore plate, adding 120 μL of the CCK-8 working solution into each pore, adding 120 μL of the CCK-8 working solution into a cell-free pore plate to serve as blank control, and incubating in the 5% CO2 incubator at a temperature of 37° C. for one hour (the process needs to be protected from light ); and […]
# (§5) taking the pore plate from the incubator, sucking 100 μL of solution from each pore into a new 96-pore plate, and reading absorbancy at 450 nm (the process needs to he protected from light).
# (§6) Tx: absorbancy measured in CCK-8 within 72 hours after compound effect
# (§7) C: absorbancy measured m CCK-8 within 72 hours after culturing in negative control pores B: absorbancy measured CCK-8 in blank control pores
# (§8) The compounds 1-19 prepared in the embodiments are operated in the above determination, and test results are shown in Table 3, wherein the highest measured IC50 values of the various compounds during single or multiple operations are classified as specified, as shown in Table 3: […]
# HepG2 cells = experiment: Determination of cell growth inhibition, CCK-8, HepG2; assay type: cell-based; conditions: Homo sapiens, HepG2 hepatoma cells, 72 hours, highest measured IC50 of single or multiple operations
# From the text: as §1, §2, §3, §4, §5, §6, §7, §8
# Li7 cells = experiment: Determination of cell growth inhibition, CCK-8, Li-7; assay type: cell-based; conditions: Li-7 hepatoma cells, 72 hours, highest measured IC50 of single or multiple operations
# From the text: as §1, §2, §3, §4, §5, §6, §7, §8
# [1] = target: T1, histone deacetylase 6 (HDAC6) (Homo sapiens, UniProt Q9UBN7); experiment: Detection of enzyme viability of histone deacetylase 6 (fluorogenic substrate deacetylation); assay type: biochemical; conditions: 0.35 ng/μL HDAC 6, 20 μM substrate, 37° C.
# T1 construct: purchased BPS Bioscience 50076
# T1 sequence (Q9UBN7 1-1215): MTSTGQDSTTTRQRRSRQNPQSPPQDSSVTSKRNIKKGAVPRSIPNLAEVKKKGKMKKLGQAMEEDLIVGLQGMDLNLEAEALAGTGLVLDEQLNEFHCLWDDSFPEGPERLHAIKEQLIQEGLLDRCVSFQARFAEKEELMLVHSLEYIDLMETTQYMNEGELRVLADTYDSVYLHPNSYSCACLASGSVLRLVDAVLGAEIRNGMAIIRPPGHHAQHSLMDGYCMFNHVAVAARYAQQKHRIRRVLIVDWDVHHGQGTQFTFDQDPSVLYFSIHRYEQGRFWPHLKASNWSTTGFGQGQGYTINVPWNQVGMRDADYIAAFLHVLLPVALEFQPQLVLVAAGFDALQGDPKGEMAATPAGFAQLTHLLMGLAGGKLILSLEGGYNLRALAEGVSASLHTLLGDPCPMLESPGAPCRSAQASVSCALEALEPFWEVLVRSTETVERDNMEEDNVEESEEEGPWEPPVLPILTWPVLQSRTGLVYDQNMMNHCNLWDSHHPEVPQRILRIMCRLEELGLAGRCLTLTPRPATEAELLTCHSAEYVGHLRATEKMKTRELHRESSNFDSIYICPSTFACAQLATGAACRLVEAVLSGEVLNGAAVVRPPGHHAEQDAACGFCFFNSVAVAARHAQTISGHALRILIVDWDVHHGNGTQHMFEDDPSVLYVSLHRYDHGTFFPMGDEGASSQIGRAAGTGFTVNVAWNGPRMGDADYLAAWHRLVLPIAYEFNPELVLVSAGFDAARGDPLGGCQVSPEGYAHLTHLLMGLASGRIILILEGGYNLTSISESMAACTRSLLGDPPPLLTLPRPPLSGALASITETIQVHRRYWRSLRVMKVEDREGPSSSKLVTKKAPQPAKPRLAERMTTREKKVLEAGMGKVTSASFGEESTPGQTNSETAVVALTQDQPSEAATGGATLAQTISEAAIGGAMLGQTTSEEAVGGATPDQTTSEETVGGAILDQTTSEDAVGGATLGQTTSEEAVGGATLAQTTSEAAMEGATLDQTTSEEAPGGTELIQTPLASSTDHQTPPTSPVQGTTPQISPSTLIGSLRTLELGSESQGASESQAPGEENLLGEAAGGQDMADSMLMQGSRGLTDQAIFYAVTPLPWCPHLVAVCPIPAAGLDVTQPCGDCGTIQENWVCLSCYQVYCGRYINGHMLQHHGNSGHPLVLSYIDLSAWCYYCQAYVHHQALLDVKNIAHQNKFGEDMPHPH
# From the text: (§9) HDAC inhibitory viabilities of the compounds in the present invention are detected in detection of substrate deacetylation.
# A: Detection of enzyme viability of histone deacetylase 6 (#50076, BPS Bioscience):
# Acetyl of HDAC 6 on a substrate is removed, so that the substrate is activated and can be affected by a subsequently added developing solution, and fluorophore is released. The size of a fluorescence signal reflects the viability of the HDAC 6. An IC50 detection method of the enzyme is disclosed in Chuping Xu, Elisabetta Soragni improved Histone Deacetylase Inhibitors as Therapeutics for the Neurdegenerative DiseaseEriedreich's Ataxia: A New Synthetic Route. A total reaction system (100 μL/well) contains 0.35 ng/μL of HDAC 6, 20 μM of substrate and compounds of different concentrations. The fluorescence signal is measured within 30 minutes after incubation at a temperature of 37° C., inhibitory effects of the compounds are determined from the obtained data and mapped with the compound concentrations to obtain a concentration response curve, and the IC50 value is fitted according to a four-parameter model.
# (§10) The compounds 1-19 prepared in the embodiments are subjected to detection of enzyme viability of histone deacetylase 6 (i.e., HDAC6) according to the method above. Test results are shown in Table 2, wherein the measured IC50 values of the compounds are classified as specified, as shown in Table 2: […]
# Hep3B cells = experiment: Determination of cell growth inhibition, CCK-8, Hep3B; assay type: cell-based; conditions: Homo sapiens, Hep3B hepatoma cells, 72 hours, highest measured IC50 of single or multiple operations
# From the text: as §1, §2, §3, §4, §5, §6, §7, §8
# [2] = target: T2, histone deacetylase 3 (HDAC3) (Homo sapiens, UniProt O15379); experiment: Detection of enzyme viability of histone deacetylase 3 (fluorogenic substrate deacetylation); assay type: biochemical; conditions: 0.16 ng/μL HDAC 3, 10 μM substrate
# T2 construct: purchased BPS Bioscience 50003
# T2 sequence (O15379 whole entry): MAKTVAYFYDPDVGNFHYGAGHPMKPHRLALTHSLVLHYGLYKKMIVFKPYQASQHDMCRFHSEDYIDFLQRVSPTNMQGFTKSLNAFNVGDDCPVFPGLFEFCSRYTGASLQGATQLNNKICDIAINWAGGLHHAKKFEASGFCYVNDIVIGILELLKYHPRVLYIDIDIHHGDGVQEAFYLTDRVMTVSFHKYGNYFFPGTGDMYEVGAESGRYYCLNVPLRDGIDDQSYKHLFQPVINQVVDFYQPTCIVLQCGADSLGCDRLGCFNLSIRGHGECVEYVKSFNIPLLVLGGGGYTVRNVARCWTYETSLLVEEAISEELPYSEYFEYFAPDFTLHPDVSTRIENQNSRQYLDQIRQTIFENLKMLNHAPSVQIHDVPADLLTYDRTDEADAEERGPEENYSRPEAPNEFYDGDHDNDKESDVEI
# T2 sequence (Q9Y618 395-489 partner limits assumed): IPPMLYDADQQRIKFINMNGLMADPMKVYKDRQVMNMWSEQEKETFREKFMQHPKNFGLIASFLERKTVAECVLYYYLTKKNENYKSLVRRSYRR
# From the text: as §9
# B: Detection of enzyme viability of histone deacetylase 3 (#50003, BPS Bioscience):
# Acetyl of HDAC 3 on a substrate is removed, so that the substrate is activated and can be affected by the developing solution, and fluorophore is released. The size of a fluorescence signal reflects the viability of the HDAC 3. An IC50 detection method of the enzyme is disclosed in Chuping Xu, Elisabetta Soraeni Improved Histone Deacetylase Inhibitors as Therapeutics for the Neurdegenerative DiseaseFriedreich's Ataxia: A New Synthetic Route. A total reaction system (100 μL/well) contains 0.16 ng/μL of HDAC 3, 10 μM of substrate and compounds of different concentrations. The fluorescence signal is detected at Ex/Em=360/460 on line, inhibitory effects of the compounds are determined from the obtained data and mapped with the compound concentrations to obtain a concentration response curve, and the IC50 value is fitted according to a four-parameter model.
# as §10, with “3” for “6”, “HDAC3)” for “HDAC6)”
SMILES,IC50 (Huh7 cells) [µM],IC50 (HepG2 cells) [µM],IC50 (Li7 cells) [µM],IC50 [1] [µM],IC50 (Hep3B cells) [µM],IC50 [2] [µM]
"O=C(NO)C1=CCN(S(=O)(=O)c2ccc3c(c2)OCC3)C1 [Compound 6, N-hydroxy-1-((2,3-dihydro-benzofuran)-6-sulfonyl)2,5-dihydro-1H-pyrrole-3-formamide]",> 10,> 10,> 10,< 0.1,> 10,0.1 to 1
"CC(=O)Nc1ccc(S(=O)(=O)N2CC=C(C(=O)NO)C2)cc1Cl [Compound 4, N-hydroxy-1-((4-acetamido-3-chlorphenyl)sulfonyl)2,5-dihydro-1H-pyrro1e-3-formamide]",> 10,> 10,> 10,< 0.1,> 10,0.1 to 1
CC(C)(C)c1ccc(S(=O)(=O)N2CC=C(C(=O)NO)C2)cc1 [Compound 8],> 10,> 10,> 10,< 0.1,> 10,0.1 to 1
O=C(NO)C1=CCN(S(=O)(=O)c2ccc(Oc3ccccc3)cc2)C1 [Compound 3],> 10,> 10,> 10,0.1 to 0.3,> 10,0.1 to 1
"O=C(NO)C1=CCN(S(=O)(=O)c2ccc3c(c2)OCCO3)C1 [Compound 5, N-hydroxy-1-((2,3-dihydro-benzo[b] [1,4]dioxin)-6-sulfonyl)2,5-dihydro-1H-pyrrole-3-formamide]",> 10,> 10,> 10,< 0.1,> 10,> 1
"O=C(NO)C1=CCN(S(=O)(=O)c2ccccc2)C1 [Compound 2, N-hydroxy-1-(benzene-sulfonyl)-2,5-dihydro-1H-pyrrole-3-formamide]",> 10,> 10,> 10,< 0.1,> 10,> 1
